The target of one experiment is T1, A2A receptor (Homo sapiens, UniProt P29274).
T1 construct: host or cells: HEK-293
Kind of experiment: A2aR antagonism IC50, cAMP TR-FRET (Lance Ultra) in HEK-293 cells, NECA as agonist.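 Further: compounds tested from 10 µM down to 0.08 nM in buffer with Rolipram at room temperature, TR-FRET cAMP signal read 1 h after adding Eu-cAMP tracer and ULight anti-cAMP.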 In kind it is cell-based. The conditions noted are these: A2AR IC50 (nM) (@5 nM NECA), HEK-293 cells expressing A2A receptor; agonist NECA 5 nM (EC90); inhibition of cAMP. In general terms: Time-resolved FRET reads energy transfer from a long-lived donor to a nearby acceptor.

In another experiment the target is T2, A2B receptor (Homo sapiens, UniProt P29275).
T2 sequence (P29275 1-332): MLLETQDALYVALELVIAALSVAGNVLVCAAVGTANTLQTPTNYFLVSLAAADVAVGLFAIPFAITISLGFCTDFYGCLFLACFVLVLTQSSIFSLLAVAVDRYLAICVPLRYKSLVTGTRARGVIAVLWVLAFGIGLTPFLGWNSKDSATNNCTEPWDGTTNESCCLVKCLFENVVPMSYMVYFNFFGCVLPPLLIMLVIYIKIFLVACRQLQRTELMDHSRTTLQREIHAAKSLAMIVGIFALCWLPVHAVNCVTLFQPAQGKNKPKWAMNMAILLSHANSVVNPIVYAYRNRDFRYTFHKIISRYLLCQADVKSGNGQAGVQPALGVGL
The experiment in a line: A2bR antagonism IC50, cAMP TR-FRET (Lance Ultra) in HEK-293 cells, NECA as agonist. In kind it is cell-based. Also noted: host or cells: HEK-293. The settings on record: HEK-293 cells expressing A2B receptor; agonist NECA 30 nM (EC90); inhibition of cAMP.

T1 sequence (P29274 whole entry): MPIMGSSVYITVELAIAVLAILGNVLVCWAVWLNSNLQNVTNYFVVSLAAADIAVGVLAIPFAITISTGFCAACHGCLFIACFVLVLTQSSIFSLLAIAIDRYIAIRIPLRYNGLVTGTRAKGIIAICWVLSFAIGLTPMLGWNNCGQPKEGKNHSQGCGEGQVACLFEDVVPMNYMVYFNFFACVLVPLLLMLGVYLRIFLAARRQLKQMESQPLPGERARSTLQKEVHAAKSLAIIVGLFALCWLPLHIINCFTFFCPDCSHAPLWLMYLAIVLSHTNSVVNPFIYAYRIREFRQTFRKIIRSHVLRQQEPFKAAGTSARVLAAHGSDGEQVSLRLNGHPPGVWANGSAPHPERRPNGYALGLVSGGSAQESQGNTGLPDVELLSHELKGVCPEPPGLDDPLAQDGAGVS
Description for A2A receptor: Adenosine A2A receptors and Adenosine A2B receptors induce the production of cAMP when activated/stimulated by an agonist like adenosine or 5′-(N-Ethylcarboxamido) adenosine (NECA). A Time-Resolved Fluorescence Energy Transfer (TR-FRET) assay was used to show the inhibition of this cAMP production in HEK cells upon treatment with compounds of the Formula I of the present disclosure.
HEK-293 cells expressing A2A receptor (#ES-011-C) or A2B receptor (#ES 013-C) were obtained from PerkinElmer. Cells were maintained in DMEM medium supplemented with 10% FBS and 200 μg/mL of G418 at 37° C. and 5% CO2. The cells were cultured in antibiotic free medium for a period of 16-20 hours prior to the assay. All subsequent steps of the assay are performed at room temperature (22-24° C.). The cells were harvested at about 80% confluency by gentle flushing with PBS, recovered by centrifugation and resuspended in stimulation buffer at the concentration of 5.0×10^6 cells/mL.
The assays were conducted in a stimulation buffer containing 1×DMEM, 5 mM HEPES, 0.1% BSA stabilizer and 20-30 μM Rolipram. Serial dilutions of compounds were made in stimulation buffer to achieve a final concentration of high micromolar (10 μM to 0.08 nM) in the reaction volume of 10 μL. The total reaction volume was 10 μL (5 μL of cells, 2.5 μL of antagonist and 2.5 μL of agonist). The stimulation was ended, and the reaction completed by adding 5 μL of 4× Eu-cAMP tracer working solution and 5 μL of 4× ULight-anti-cAMP working solution. The TR-FRET signal was measured after 1-hour incubation using a Tecan M1000 reader.

With `Cc1nn2c(N)c(C#N)c(NCCc3ccc(F)cn3)nc2c1C` [Example 11, 7-amino-5-((2-(5-fluoropyridin-2-yl)ethyl)amino)-2,3-dimethylpyrazolo[1,5-a]pyrimidine-6-carbonitrile], the IC50 at A2A receptor was found to be 6.8 nM; on A2B receptor, 43 nM.

As for `CCn1ccc(CCNc2nc3c(C)c(C)nn3c(N)c2C#N)n1` [Example 29, 7-amino-5-{[2-(1-ethyl-1H-pyrazol-3-yl)ethyl]amino}-2,3-dimethylpyrazolo[1,5-a]pyrimidine-6-carbonitrile], the IC50 at A2A receptor worked out at 1 nM; on A2B receptor, 18 nM.

Take `CCc1c(C)nn2c(N)c(C#N)c(NCCc3cccc(C(C)(C)O)n3)nc12` [Example 25, 7-amino-3-ethyl-5-({2-[6-(2-hydroxypropan-2-yl)pyridin-2-yl]ethyl}amino)-2-methylpyrazolo[1,5-a]pyrimidine-6-carbonitrile]: the half-maximal inhibitory concentration (IC50) on A2A receptor is 0.2 nM; at A2B receptor it was 14 nM.

Consider `Cc1nn2c(N)c(C#N)c(NCc3ccn(C(C)(C)CO)n3)nc2c1C` [Example 57, 7-amino-5-(((1-(1-hydroxy-2-methylpropan-2-yl)-1H-pyrazol-3-yl)methyl)amino)-2,3-dimethylpyrazolo[1,5-a]pyrimidine-6-carbonitrile], for which the values for the IC50 at A2A receptor and at A2B receptor were 13 nM and 100 nM, respectively.

As for `CCc1nn2c(N)c(C#N)c(NCCc3cccc(C)n3)nc2c1C` [Example 42, 7-amino-2-ethyl-3-methyl-5-((2-(6-methylpyridin-2-yl)ethyl)amino) pyrazolo[1,5-a]pyrimidine-6-carbonitrile], the IC50 was determined as 0.88 nM at A2A receptor and 76 nM on A2B receptor.

Consider `Cc1nn2c(N)c(C#N)c(NCCc3ccn(C(C)(C)CO)n3)nc2c1C` [Example 31, 7-amino-5-({2-[1-(1-hydroxy-2-methylpropan-2-yl)-1H-pyrazol-3-yl]ethyl}amino)-2,3-dimethylpyrazolo[1,5-a]pyrimidine-6-carbonitrile], for which the values for the IC50 at A2A receptor and on A2B receptor were 0.73 nM and 51 nM, respectively.

Regarding `COc1cccc(CCNc2nc3c(C)c(C)nn3c(N)c2C#N)n1` [Example 12, 7-amino-5-((2-(6-methoxypyridin-2-yl)ethyl)amino)-2,3-dimethylpyrazolo[1,5-a]pyrimidine-6-carbonitrile], the IC50 on A2A receptor stood at 0.9 nM; on A2B receptor it was 3.7 nM.

Turning to `Cc1nn2c(N)c(C#N)c(NCCc3cccc(C(C)(C)O)n3)nc2c1C` [Example 16, 7-amino-5-({2-[6-(2-hydroxypropan-2-yl)pyridin-2-yl]ethyl}amino)-2,3-dimethylpyrazolo[1,5-a]pyrimidine-6-carbonitrile], the IC50 at A2A receptor was found to be 2 nM; at A2B receptor, 53 nM.

With `Cc1nn2c(N)c(C#N)c(NCCc3ccn(CCO)n3)nc2c1Cl` [Example 35], the IC50 at A2A receptor stood at 0.92 nM; on A2B receptor, 16 nM.

With `CCc1c(C)nn2c(N)c(C#N)c(NCCc3ccc(C)cn3)nc12` [Example 18, 7-Amino-3-ethyl-2-methyl-5-((2-(5-methylpyridin-2-yl)ethyl)amino) pyrazolo[1,5-a]pyrimidine-6-carbonitrile], the figures for the IC50 on A2A receptor and on A2B receptor were 5.5 nM and 9.5 nM, respectively.

Consider `CCc1c(C)nn2c(N)c(C#N)c(NCCc3ccn(CCO)n3)nc12` [Example 54, 7-amino-3-ethyl-5-((2-(1-(2-hydroxyethyl)-1H-pyrazol-3-yl)ethyl)amino)-2-methylpyrazolo[1,5-a]pyrimidine-6-carbonitrile], for which the values for the IC50 on A2A receptor and on A2B receptor were 0.74 nM and 5 nM, respectively.

Take `CCc1nn2c(N)c(C#N)c(NCCc3cccc(C(C)(C)O)n3)nc2c1C` [Example 43, 7-amino-2-ethyl-5-((2-(6-(2-hydroxypropan-2-yl)pyridin-2-yl)ethyl)amino)-3-methylpyrazolo[1,5-a]pyrimidine-6-carbonitrile]: the IC50 came out at 2.3 nM at A2A receptor and 123 nM on A2B receptor.

As to `Cc1cccc(CCNc2nc3c(C(C)C)c(C)nn3c(N)c2C#N)n1` [Example 28, 7-amino-3-(isopropyl)-2-methyl-5-((2-(6-methylpyridin-2-yl)ethyl)amino) pyrazolo[1,5-a]pyrimidine-6-carbonitrile], the IC50 on A2A receptor amounted to 31 nM; at A2B receptor it was 17 nM.

On to `Cc1ccc(CCNc2nc3c(C)c(C)nn3c(N)c2C#N)nc1` [Example 10, 7-Amino-2,3-dimethyl-5-((2-(5-methylpyridin-2-yl)ethyl)amino) pyrazolo[1,5-a] pyrimidine-6-carbonitrile], for which the IC50 on A2A receptor came out at 2.3 nM; on A2B receptor, 41 nM.

With `Cc1cccc(CNc2nc3c(C)c(C)nn3c(N)c2C#N)n1` [Example 6, 7-amino-2,3-dimethyl-5-{[(6-methylpyridin-2-yl)methyl]amino}pyrazolo[1,5-a] pyrimidine-6-carbonitrile], the IC50 at A2A receptor is 6.6 nM; at A2B receptor it was greater than 3000 nM.

In the case of `CCc1c(C)nn2c(N)c(C#N)c(NC(C)Cc3ccccn3)nc12` (single isomer, unassigned) [Example 22, 7-Amino-3-ethyl-2-methyl-5-((1-(pyridin-2-yl)propan-2-yl)amino) pyrazolo[1,5-a]pyrimidine-6-carbonitrile], the IC50 on A2A receptor stood at 2.5 nM; on A2B receptor, 2.2 nM.

As for `Cc1cccc(CN(C)c2nc3c(C)c(C)nn3c(N)c2C#N)n1` [Example 8, 7-amino-2,3-dimethyl-5-{methyl[(6-methylpyridin-2-yl)methyl]amino}pyrazolo [1,5-a] pyrimidine-6-carbonitrile], the concentration for half-maximal inhibition (IC50) on A2A receptor was 46 nM; at A2B receptor it was 1680 nM.

Consider `CCc1c(C)nn2c(N)c(C#N)c(NCCc3nc(C4(CO)CC4)cs3)nc12` [Example 66], for which the values for the IC50 on A2A receptor and at A2B receptor were 5 nM and 21 nM, respectively.

`CCc1c(C)nn2c(N)c(C#N)c(NCCc3ccc(F)cn3)nc12` [Example 21, 7-Amino-3-ethyl-5-((2-(5-fluoropyridin-2-yl)ethyl)amino)-2-methylpyrazolo[1,5-a]pyrimidine-6-carbonitrile]: the IC50 at A2A receptor amounted to 3.9 nM; at A2B receptor, 13 nM.

As to `CCc1c(C(F)F)nn2c(N)c(C#N)c(NCCc3cccc(CO)n3)nc12` [Example 56, 7-amino-2-(difluoromethyl)-3-ethyl-5-((2-(6-(hydroxymethyl)pyridine-2-yl)ethyl)amino) pyrazolo[1,5-a] pyrimidine-6-carbonitrile], the IC50 on A2A receptor amounted to 3.3 nM; on A2B receptor, 11 nM.

For the compound `CCc1c(C)nn2c(N)c(C#N)c(N[C@H](C)c3ccccn3)nc12` [Example 3, (R)-7-Amino-3-ethyl-2-methyl-5-((1-(pyridin-2-yl)ethyl)amino) pyrazolo[1,5-a] pyrimidine-6-carbonitrile], the IC50 on A2A receptor was 1010 nM; at A2B receptor, greater than 3000 nM.

Turning to `Cc1ccc(F)c(CCNc2nc3c(C)c(C)nn3c(N)c2C#N)n1` [Example 41, 7-amino-5-((2-(3-fluoro-6-methylpyridin-2-yl)ethyl)amino)-2,3-dimethylpyrazolo[1,5-a]pyrimidine-6-carbonitrile], the values for the IC50 at A2A receptor and on A2B receptor were 0.88 nM and 73 nM, respectively.

Take `Cc1cccc(CC(C)Nc2nc3c(C)c(C)nn3c(N)c2C#N)n1` (single isomer, unassigned) [Example 14, 7-amino-2,3-dimethyl-5-{[1-(6-methylpyridin-2-yl)propan-2-yl]amino}pyrazolo[1,5-a]pyrimidine-6-carbonitrile]: the results for the IC50 at A2A receptor and on A2B receptor were 1 nM and 7 nM, respectively.

For `Cc1nn2c(N)c(C#N)c(NCCc3cccc(C(C)(C)CO)n3)nc2c1C` [Example 53, 7-amino-5-((2-(6-(1-hydroxy-2-methylpropan-2-yl)pyridine-2-yl)ethyl)amino)-2,3-dimethylpyrazolo[1,5-a]pyrimidine-6-carbonitrile], the figures for the IC50 at A2A receptor and on A2B receptor were 0.3 nM and 27 nM, respectively.

For the compound `CCc1c(C)nn2c(N)c(C#N)c(NC(C)Cc3ccccn3)nc12` (single isomer, unassigned) [Example 23, 7-Amino-3-ethyl-2-methyl-5-((1-(pyridin-2-yl)propan-2-yl)amino) pyrazolo[1,5-a]pyrimidine-6-carbonitrile], the IC50 stood at 11 nM at A2A receptor and 130 nM on A2B receptor.

Consider `Cc1cccc([C@H](C)Nc2nc3c(C)c(C)nn3c(N)c2C#N)n1` [Example 2, 7-amino-2,3-dimethyl-5-{[(1S)-1-(6-methylpyridin-2-yl)ethyl]amino}pyrazolo [1,5-a]pyrimidine-6-carbonitrile], for which the IC50 amounted to 2 nM on A2A receptor and 547 nM on A2B receptor.

In the case of `CCc1c(C)nn2c(N)c(C#N)c(N[C@@H](C)c3cccc(C)n3)nc12` [Example 5, (S)-7-Amino-3-ethyl-2-methyl-5-((1-(6-methylpyridin-2-yl)ethyl)amino) pyrazolo [1,5-a] pyrimidine-6-carbonitrile], the IC50 on A2A receptor is 0.15 nM; on A2B receptor, 0.87 nM.

Take `Cc1cccc(CCNc2nc3c(CC4CC4)c(C)nn3c(N)c2C#N)n1` [Example 26, 7-amino-3-(cyclopropylmethyl)-2-methyl-5-((2-(6-methylpyridin-2-yl)ethyl)amino) pyrazolo[1,5-a]pyrimidine-6-carbonitrile]: the IC50 on A2A receptor was 2.9 nM; at A2B receptor, 0.83 nM.

For `CCc1c(C)nn2c(N)c(C#N)c(N[C@@H](C)c3ccccn3)nc12` [Example 4, (S)-7-Amino-3-ethyl-2-methyl-5-((1-(pyridin-2-yl)ethyl)amino) pyrazolo[1,5-a] pyrimidine-6-carbonitrile], the IC50 was found to be 25 nM at A2A receptor and 1370 nM at A2B receptor.

For orientation: IC50 means the point on the concentration scale where inhibition reaches its midpoint. Low readings indicate greater potency in that assay, high ones weaker potency in that assay.

(Values after patent US12577247B2 (BUGWORKS RESEARCH, INC., priority 2021, dated 2026).)
